pIC50: −log10 of the molar value.
Columns and labels:
[1] = target: Receptor tyrosine-protein kinase erbB-2 (Homo sapiens) (UniProt P04626); experiment: Inhibition of recombinant His-tagged human HER2 (676 to 1255 residues) expressed in baculovirus expression system at 0.5 uM using tyr 06 as substrate in presence of ATP at Km concentration after 1 hr by Z'-LYTE assay relative to control
CYP1A2 = CYP1A2 (Homo sapiens, UniProt P05177); experiment: Inhibition of CYP1A2 in human pooled liver microsomes at 10 uM using phenacetin as substrate preincubated for 10 mins followed by NADPH addition and measured after 15 mins by LC/MS/MS analysis relative to control; format: ADME; conditions: probe phenacetin
CYP1A2, sequence (P05177 whole entry, the tested form may be a part): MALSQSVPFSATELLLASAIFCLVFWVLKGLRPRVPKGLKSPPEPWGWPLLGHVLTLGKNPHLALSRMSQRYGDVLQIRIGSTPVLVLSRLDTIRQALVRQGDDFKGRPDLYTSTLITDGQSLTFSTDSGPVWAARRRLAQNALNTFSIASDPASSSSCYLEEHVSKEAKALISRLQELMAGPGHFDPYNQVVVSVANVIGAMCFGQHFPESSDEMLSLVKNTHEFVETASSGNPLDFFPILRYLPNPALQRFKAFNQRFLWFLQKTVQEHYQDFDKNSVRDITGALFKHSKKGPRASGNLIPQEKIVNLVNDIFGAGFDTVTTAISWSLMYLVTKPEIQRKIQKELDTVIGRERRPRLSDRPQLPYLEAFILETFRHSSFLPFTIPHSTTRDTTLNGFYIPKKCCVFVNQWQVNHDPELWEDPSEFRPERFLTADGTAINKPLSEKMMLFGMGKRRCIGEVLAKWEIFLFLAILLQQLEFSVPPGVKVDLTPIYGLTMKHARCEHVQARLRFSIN

[2] = target: Discoidin domain-containing receptor 2 (Homo sapiens) (UniProt Q16832); experiment: Inhibition of recombinant GST-tagged human DDR2 (427 to 855 residues) expressed in baculovirus expression system at 0.5 uM after 1 hr by Lantha screen assay relative to control
[3] = target: Tyrosine-protein kinase ZAP-70 (Homo sapiens) (UniProt P43403); experiment: Inhibition of recombinant full length His-tagged human ZAP70 expressed in baculovirus expression system at 0.5 uM using tyr 07 as substrate in presence of ATP at Km concentration after 1 hr by Z'-LYTE assay relative to control
[4] = target: Serine/threonine-protein kinase TBK1 (Homo sapiens) (UniProt Q9UHD2); experiment: Inhibition of recombinant full length GST-tagged human TBK1 expressed in insect cells at 0.5 uM using Ser/Thr 05 as substrate in presence of ATP at Km concentration after 1 hr by Z'-LYTE assay relative to control
Serine/threonine-protein kinase TBK1 (Homo sapiens), sequence (Q9UHD2 whole entry, the tested form may be a part): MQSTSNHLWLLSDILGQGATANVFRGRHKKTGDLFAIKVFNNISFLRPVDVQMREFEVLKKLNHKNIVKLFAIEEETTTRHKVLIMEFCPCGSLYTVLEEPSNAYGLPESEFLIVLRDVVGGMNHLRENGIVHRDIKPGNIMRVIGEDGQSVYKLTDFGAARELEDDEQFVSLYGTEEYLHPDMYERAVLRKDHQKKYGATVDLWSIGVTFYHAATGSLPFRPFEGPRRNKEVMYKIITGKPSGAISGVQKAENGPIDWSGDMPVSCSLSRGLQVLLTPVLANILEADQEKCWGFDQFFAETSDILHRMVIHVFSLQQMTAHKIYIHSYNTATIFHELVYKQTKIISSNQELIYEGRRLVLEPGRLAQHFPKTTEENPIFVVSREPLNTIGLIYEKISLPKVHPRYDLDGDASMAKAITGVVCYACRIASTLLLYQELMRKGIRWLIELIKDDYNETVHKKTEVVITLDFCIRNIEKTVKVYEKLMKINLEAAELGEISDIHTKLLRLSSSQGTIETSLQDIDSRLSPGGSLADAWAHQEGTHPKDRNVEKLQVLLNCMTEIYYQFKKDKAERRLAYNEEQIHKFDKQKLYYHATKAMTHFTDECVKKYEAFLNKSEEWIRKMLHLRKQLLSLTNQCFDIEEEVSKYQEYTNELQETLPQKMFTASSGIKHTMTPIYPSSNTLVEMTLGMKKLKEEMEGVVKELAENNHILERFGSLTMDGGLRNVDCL

Focal adhesion kinase 1 [5] = target: T1, Focal adhesion kinase 1 (Homo sapiens, UniProt Q05397); experiment: Inhibition of recombinant full length GST-tagged human FAK cytoplasmic domain expressed in baculovirus expression system at 0.5 uM using tyr 07 as substrate in presence of ATP at Km concentration after 1 hr by Z'-LYTE assay relative to control
[6] = target: Mast/stem cell growth factor receptor Kit (Homo sapiens) (UniProt P10721); experiment: Inhibition of recombinant His-tagged human KIT (544 to 976 residues) expressed in baculovirus expression system at 0.5 uM using tyr 06 as substrate in presence of ATP at Km concentration after 1 hr by Z'-LYTE assay relative to control
A549 [7] = experiment: Induction of apoptosis in human A549 cells assessed as early apoptotic cells at 3 uM after 72 hrs by Annexin V-FITC/propidium iodide staining-based flow cytometric analysis (reference value: 2.40%); format: functional
[8] = Metabolic stability in mouse liver microsomes assessed as compound remaining at 1 uM measured up to 1 hr in absence of NADPH by LC-MS/MS analysis; format: ADME, Microsome; conditions: read-out: Stability
[9] = Intrinsic clearance in rat liver microsomes at 1 uM measured up to 1 hr in presence of NADPH by LC-MS/MS analysis; format: ADME, Microsome; conditions: read-out: CLH
A549 [10] = experiment: cells; conditions: Homo sapiens, A549, 72 h
Description: Antiproliferative activity against human A549 cells assessed as reduction in cell viability after 72 hrs by MTT assay

[11] = target: Serine/threonine-protein kinase Chk1 (Homo sapiens) (UniProt O14757); experiment: Inhibition of recombinant full-legth His-tagged human CHK1 expressed in baculovirus expression system at 0.5 uM using Ser/Thr 19 as substrate in presence of ATP at Km concentration after 1 hr by Z'-LYTE assay relative to control
[12] = target: Hepatocyte growth factor receptor (Homo sapiens) (UniProt P08581); experiment: Inhibition of recombinant full length N-terminal His-tagged human cMET cytoplasmic domain (956 to 1390 residues) expressed in baculovirus expression system at 0.5 uM using tyr 06 as substrate in presence of ATP at Km concentration after 1 hr by Z'-LYTE assay relative to control
[13] = target: Macrophage colony-stimulating factor 1 receptor (Homo sapiens) (UniProt P07333); experiment: Inhibition of recombinant His-tagged human CSF1R cytoplasmic domain expressed in baculovirus expression system at 0.5 uM using tyr 01 as substrate in presence of ATP at Km concentration after 1 hr by Z'-LYTE assay relative to control
Macrophage colony-stimulating factor 1 receptor (Homo sapiens), sequence (P07333 whole entry, the tested form may be a part): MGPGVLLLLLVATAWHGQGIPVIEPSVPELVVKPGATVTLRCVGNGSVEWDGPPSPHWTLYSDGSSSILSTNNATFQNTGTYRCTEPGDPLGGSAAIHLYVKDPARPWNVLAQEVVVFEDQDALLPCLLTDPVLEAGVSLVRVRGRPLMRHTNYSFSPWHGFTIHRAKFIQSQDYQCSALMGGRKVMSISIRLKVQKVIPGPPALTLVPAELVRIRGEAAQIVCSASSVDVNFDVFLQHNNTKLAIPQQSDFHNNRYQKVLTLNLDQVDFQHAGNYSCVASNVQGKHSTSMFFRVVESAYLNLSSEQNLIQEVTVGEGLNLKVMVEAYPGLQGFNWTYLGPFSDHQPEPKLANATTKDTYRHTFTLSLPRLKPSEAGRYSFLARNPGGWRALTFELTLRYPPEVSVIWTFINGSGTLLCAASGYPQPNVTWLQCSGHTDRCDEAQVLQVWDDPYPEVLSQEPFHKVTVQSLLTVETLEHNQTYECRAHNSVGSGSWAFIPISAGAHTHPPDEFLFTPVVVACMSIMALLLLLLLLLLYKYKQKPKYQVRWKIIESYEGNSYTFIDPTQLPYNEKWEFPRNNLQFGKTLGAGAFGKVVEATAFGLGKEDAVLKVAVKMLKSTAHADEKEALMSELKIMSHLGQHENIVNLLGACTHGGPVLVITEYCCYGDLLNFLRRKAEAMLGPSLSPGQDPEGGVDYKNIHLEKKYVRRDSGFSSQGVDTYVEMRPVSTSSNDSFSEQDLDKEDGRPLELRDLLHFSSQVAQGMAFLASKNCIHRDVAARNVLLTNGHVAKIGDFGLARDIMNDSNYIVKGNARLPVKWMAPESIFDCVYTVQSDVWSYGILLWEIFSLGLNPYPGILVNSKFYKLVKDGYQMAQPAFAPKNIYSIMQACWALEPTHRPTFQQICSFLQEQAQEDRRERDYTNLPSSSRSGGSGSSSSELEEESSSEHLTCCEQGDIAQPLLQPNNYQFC

A549 [14] = experiment: Induction of apoptosis in human A549 cells assessed as late apoptotic cells at 1 uM after 72 hrs by Annexin V-FITC/propidium iodide staining-based flow cytometric analysis (reference value: 1.24%); format: functional
[15] = target: Tyrosine-protein kinase BTK (Homo sapiens) (UniProt Q06187); experiment: Inhibition of recombinant full-legth His-tagged human BTK expressed in baculovirus expression system at 0.5 uM using tyr 01 as substrate in presence of ATP at Km concentration after 1 hr by Z'-LYTE assay relative to control
[16] = target: ALK tyrosine kinase receptor (Homo sapiens) (UniProt Q9UM73); experiment: Inhibition of recombinant human GST-tagged ALK (1058 to 1620 residues) expressed in baculovirus at 0.5 uM using tyr 01 as substrate as substrate in presence of ATP at Km concentration after 1 hr by Z'-LYTE assay relative to control
ALK tyrosine kinase receptor (Homo sapiens), sequence (Q9UM73 19-1620 limits assumed): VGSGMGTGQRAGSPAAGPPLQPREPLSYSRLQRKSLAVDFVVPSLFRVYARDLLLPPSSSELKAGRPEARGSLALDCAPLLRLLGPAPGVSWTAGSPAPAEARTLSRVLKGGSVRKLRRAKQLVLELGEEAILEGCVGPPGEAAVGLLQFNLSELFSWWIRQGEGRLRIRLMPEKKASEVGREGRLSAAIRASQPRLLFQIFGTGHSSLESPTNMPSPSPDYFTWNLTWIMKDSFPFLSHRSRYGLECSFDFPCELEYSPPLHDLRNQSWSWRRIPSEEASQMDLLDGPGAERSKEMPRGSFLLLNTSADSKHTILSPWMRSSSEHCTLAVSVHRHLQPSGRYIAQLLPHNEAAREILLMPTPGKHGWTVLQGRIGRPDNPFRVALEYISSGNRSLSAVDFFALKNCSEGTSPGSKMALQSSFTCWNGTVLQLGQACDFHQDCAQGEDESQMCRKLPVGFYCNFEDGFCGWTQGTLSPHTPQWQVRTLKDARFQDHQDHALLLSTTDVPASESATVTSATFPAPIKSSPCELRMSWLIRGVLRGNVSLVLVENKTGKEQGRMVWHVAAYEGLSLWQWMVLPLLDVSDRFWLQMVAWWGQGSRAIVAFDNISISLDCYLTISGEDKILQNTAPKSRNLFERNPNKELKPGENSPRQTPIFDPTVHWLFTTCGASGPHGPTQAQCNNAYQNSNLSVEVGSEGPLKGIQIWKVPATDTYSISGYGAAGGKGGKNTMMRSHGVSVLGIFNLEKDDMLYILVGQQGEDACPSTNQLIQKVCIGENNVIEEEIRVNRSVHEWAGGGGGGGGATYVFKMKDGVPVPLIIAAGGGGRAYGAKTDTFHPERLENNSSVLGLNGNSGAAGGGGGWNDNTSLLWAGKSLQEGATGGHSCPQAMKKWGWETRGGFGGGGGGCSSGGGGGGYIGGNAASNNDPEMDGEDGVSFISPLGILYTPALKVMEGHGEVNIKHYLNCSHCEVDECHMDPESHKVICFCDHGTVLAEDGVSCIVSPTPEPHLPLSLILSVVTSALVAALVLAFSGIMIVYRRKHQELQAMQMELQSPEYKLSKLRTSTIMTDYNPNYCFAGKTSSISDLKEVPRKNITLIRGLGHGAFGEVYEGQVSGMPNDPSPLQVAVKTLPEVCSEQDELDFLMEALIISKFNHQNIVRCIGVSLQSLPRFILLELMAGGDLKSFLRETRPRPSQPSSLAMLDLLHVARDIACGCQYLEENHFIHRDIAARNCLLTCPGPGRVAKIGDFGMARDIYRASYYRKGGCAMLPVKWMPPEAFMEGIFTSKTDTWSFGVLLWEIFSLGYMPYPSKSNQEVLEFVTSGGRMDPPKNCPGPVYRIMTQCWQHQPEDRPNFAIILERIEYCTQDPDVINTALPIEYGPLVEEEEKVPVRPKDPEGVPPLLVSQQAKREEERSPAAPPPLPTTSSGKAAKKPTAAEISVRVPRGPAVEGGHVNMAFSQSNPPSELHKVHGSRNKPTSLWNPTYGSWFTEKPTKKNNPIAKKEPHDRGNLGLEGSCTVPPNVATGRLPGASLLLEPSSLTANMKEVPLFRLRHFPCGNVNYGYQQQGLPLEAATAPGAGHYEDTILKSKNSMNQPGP

Focal adhesion kinase 1 [17] = target: T1, Focal adhesion kinase 1; experiment: Inhibition of recombinant N-terminal GST-tagged human FAK (327 to 1052 residues) expressed in baculovirus expression system using TK as substrate incubated for 50 mins in presence of ATP and measured after 1 hr by HTRF assay
[18] = Intrinsic clearance in human liver microsomes at 1 uM measured up to 1 hr in presence of NADPH by LC-MS/MS analysis; format: ADME, Microsome; conditions: read-out: CLH
A549 [19] = experiment: Induction of apoptosis in human A549 cells assessed as necrotic cells at 9 uM after 72 hrs by Annexin V-FITC/propidium iodide staining-based flow cytometric analysis (reference value: 1.70%); format: functional
[20] = Intrinsic clearance in human liver at 1 uM measured up to 1 hr in presence of NADPH by LC-MS/MS analysis; format: ADME, tissue-based
A549 [21] = experiment: Induction of apoptosis in human A549 cells after 72 hrs by Annexin V-FITC/propidium iodide staining-based flow cytometric analysis; format: functional, cell-based
[22] = target: Tyrosine-protein kinase SYK (Homo sapiens) (UniProt P43405); experiment: Inhibition of recombinant full length GST-tagged human SYK expressed in baculovirus expression system at 0.5 uM using tyr 02 as substrate in presence of ATP at Km concentration after 1 hr by Z'-LYTE assay relative to control
A549 [23] = experiment: Antimetastatic activity against human A549 cells assessed as reduction in number of cell migration after 72 hrs by crystal violet staining based transwell assay; format: functional
[24] = Intrinsic clearance in mouse liver microsomes at 1 uM measured up to 1 hr in presence of NADPH by LC-MS/MS analysis; format: ADME, Microsome; conditions: read-out: CLH
[25] = target: Tyrosine-protein kinase ABL1 (Homo sapiens) (UniProt P00519); experiment: Inhibition of full-length His-tagged human ABL1 expressed in baculovirus expression system at 0.5 uM using tyr 02 as substrate in presence of ATP at Km concentration after 1 hr by Z'-LYTE assay relative to control

Receptor tyrosine-protein kinase erbB-2 (Homo sapiens), sequence (P04626 whole entry, the tested form may be a part): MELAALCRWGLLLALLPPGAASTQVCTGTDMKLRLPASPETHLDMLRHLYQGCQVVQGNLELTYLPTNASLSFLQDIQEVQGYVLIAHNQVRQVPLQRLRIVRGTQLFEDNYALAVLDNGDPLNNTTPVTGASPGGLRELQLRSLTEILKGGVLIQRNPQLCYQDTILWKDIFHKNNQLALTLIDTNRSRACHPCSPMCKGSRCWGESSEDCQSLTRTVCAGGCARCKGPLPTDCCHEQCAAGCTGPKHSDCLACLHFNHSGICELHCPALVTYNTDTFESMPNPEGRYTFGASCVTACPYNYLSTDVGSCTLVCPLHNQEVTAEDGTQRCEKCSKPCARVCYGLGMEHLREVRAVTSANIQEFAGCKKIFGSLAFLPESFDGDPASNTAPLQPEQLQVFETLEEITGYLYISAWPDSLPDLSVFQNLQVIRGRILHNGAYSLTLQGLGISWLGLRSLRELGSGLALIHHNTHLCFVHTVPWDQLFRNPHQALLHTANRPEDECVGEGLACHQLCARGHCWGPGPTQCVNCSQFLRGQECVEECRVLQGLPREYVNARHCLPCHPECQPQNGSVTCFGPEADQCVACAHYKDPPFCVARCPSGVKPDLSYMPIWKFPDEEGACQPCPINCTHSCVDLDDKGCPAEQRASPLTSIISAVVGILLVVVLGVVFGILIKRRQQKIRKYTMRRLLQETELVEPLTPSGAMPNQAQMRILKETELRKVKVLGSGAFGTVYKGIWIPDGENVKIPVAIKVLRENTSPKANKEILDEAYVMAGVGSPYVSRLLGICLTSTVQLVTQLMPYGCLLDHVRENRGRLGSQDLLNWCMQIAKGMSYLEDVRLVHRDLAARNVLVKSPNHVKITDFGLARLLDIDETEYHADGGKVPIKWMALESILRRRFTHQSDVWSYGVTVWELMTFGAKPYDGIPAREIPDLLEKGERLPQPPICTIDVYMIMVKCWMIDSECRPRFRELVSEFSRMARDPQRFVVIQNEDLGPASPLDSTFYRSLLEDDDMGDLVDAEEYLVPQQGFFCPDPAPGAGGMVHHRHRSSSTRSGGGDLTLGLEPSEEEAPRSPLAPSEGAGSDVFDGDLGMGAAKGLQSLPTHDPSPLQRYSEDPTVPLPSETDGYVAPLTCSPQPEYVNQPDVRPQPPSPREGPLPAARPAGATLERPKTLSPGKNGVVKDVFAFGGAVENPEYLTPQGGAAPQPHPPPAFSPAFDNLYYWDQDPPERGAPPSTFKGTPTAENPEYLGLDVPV

inhibition [1]: 12%
inhibition at 0.25 h, 10 µM (CYP1A2): 1.5%
inhibition [2]: 1%
inhibition [3]: -3%
inhibition [4]: 23%
inhibition (Focal adhesion kinase 1 [5]): 100%
inhibition [6]: 2%
remaining at 1 h, 1 µM [8]: 78%
microsomal CLint at 1 µM [9]: < 9.6 µL/min/mg
pIC50 (A549 [10]): 5.49
inhibition [11]: 3%
inhibition [12]: -2%
inhibition [13]: 12%
inhibition [15]: 0%
inhibition [16]: 98%
pIC50 (Focal adhesion kinase 1 [17]): 8.27
microsomal CLint at 1 µM [18]: 12.9 µL/min/mg
CLH [20]: 11.6 mL/min/kg
inhibition [22]: 73%
microsomal CLint at 1 µM [24]: 10.1 µL/min/mg
inhibition [25]: 5%
SMILES: COc1cc(C(=O)NC2CCNCC2)ccc1Nc1nc(Nc2ccccc2P(C)(C)=O)c2cc[nH]c2n1
Activity (A549 [7]): 17.3%
Activity (A549 [14]): 9.62%
Activity (A549 [19]): 4.15%
Activity (A549 [21]): Dose-dependent effect
Activity (A549 [23]): Dose-dependent effect

Reference: ChEMBL document CHEMBL4311976, “Design, synthesis and biological evaluation of novel 7H-pyrrolo[2,3-d]pyrimidine derivatives as potential FAK inhibitors and anticancer agents” (Eur J Med Chem, 2019)
